Results: paper PMC11365428 (The Journal of Biological Chemistry, 2024)
Non-standard residues stand in square brackets, D forms with d. Residues, ends and D or L forms follow the SMILES beside them. pGlu = O=C1CC[C@@H](C(=O)O)N1

Key:
Format in all cases: cell-based
[1] = molecular target: T1, apTKRPR-A (Aplysia californica, UniProt A0AAU7SSZ1); experiment: IP1 accumulation assay, CHO-K1 cells transiently expressing apTKRPR-A
T1 sequence (A0AAU7SSZ1 1-398): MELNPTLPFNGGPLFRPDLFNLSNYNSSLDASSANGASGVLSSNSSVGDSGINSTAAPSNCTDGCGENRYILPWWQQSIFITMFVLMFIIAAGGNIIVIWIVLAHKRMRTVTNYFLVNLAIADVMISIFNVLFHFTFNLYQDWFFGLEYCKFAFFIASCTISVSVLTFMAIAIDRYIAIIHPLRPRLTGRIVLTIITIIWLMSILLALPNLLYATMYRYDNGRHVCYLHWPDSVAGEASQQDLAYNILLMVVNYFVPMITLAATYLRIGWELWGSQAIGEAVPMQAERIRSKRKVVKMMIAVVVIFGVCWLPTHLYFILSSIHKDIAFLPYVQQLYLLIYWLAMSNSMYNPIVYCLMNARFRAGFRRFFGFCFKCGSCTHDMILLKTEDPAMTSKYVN
Description: To express putative Aplysia receptors transiently in CHO-K1 cells, the cDNAs were subcloned into the pcDNA3.1(+) or pcDNA3.1(+)-FLAG (for ELISA experiments only, see “Cell surface expression analysis by ELISA” section) expression vector. On the day before transfection, the CHO-K1 cells were passaged into 60 mm diameter tissue culture–treated dishes, and the transfection experiments were performed when the cells were grown to 70 to 90% confluence. CHO-K1 cells were transfected with the cDNA plasmid constructs using Turbofect Transfection reagent (Thermo Fisher Scientific, R0531), following the manufacturer’s instructions. […] The DNA/TurboFect mixture dropwise was then added to the dish, and the cells were incubated at 37 °C in a humidified incubator containing 5% CO2 overnight.
On the third day, the activation of the putative receptors was detected by monitoring intracellular IP1 concentration using an IP-One Gq kit (Cisbio, 62IPAPEB) in Tecan Spark. Except for using 0.5x reagent, all other procedures were performed following the manufacturer’s instructions. IP1 accumulation assay measures the accumulation of IP1, which is hydrolyzed from the second messenger, and inositol triphosphate. Inositol triphosphate is generated by the Gαq pathway when a GPCR is activated by an appropriate ligand.

[2] = molecular target: apTKRPR-A T376 (Aplysia californica, UniProt A0AAU7SSZ1, DEL377-398); experiment: IP1 accumulation assay, C-terminal truncate apTKRPR-A T376
Description: (§1) To express putative Aplysia receptors transiently in CHO-K1 cells, the cDNAs were subcloned into the pcDNA3.1(+) or pcDNA3.1(+)-FLAG (for ELISA experiments only, see “Cell surface expression analysis by ELISA” section) expression vector. On the day before transfection, the CHO-K1 cells were passaged into 60 mm diameter tissue culture–treated dishes, and the transfection experiments were performed when the cells were grown to 70 to 90% confluence. CHO-K1 cells were transfected with the cDNA plasmid constructs using Turbofect Transfection reagent (Thermo Fisher Scientific, R0531), following the manufacturer’s instructions. In brief, 4 μg of the putative receptor plasmids [in pcDNA3.1(+) or pcDNA3.1(+)-FLAG] were mixed with 400 μl of Opti-MEM (Gibco, 11058021), followed by the addition of 15 μl of TurboFect Transfection reagent and incubated at room temperature for 15 min. […]
(§2) The next day, transfected cells were trypsinized and reseeded in an opaque white 96-well half-area (Corning, 3688) or 384-well tissue culture–treated plates (Corning, 3570) at a density of 20,000 cells/well in F-12K and 10% FBS and incubated at 37 °C in a humidified incubator containing 5% CO2 overnight. On the third day, the activation of the putative receptors was detected by monitoring intracellular IP1 concentration using an IP-One Gq kit (Cisbio, 62IPAPEB) in Tecan Spark. […]

[3] = molecular target: apTKRPR-A 5A (Aplysia californica, UniProt A0AAU7SSZ1, S377A/S394A/T379A/T387A/T393A); experiment: IP1 accumulation assay, Ser/Thr-to-Ala mutant apTKRPR-A 5A
apTKRPR-A 5A, sequence (A0AAU7SSZ1 entry or part of it S377A/T379A/T387A/T393A/S394A): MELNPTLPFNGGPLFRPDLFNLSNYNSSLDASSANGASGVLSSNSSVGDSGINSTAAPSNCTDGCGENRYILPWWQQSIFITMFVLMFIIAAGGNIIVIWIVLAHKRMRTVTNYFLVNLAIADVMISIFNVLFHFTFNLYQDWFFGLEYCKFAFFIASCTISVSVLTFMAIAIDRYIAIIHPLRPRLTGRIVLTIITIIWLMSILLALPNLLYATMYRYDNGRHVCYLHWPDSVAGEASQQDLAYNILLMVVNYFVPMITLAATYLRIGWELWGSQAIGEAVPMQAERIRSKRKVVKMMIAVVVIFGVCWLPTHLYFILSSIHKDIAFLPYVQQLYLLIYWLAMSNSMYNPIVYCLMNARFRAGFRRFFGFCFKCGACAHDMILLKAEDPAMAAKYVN
Description: as §1, §2

[4] = molecular target: apTKRPR-B 14A (Aplysia californica, UniProt A0AAU7STS1, S392A/S396A/S399A/S407A/S415A/S421A/S426A/S434A/T393A/T411A/T412A/T422A/T424A/T435A); experiment: IP1 accumulation assay, Ser/Thr-to-Ala mutant apTKRPR-B 14A
apTKRPR-B 14A, sequence (A0AAU7STS1 entry or part of it with the stated changes): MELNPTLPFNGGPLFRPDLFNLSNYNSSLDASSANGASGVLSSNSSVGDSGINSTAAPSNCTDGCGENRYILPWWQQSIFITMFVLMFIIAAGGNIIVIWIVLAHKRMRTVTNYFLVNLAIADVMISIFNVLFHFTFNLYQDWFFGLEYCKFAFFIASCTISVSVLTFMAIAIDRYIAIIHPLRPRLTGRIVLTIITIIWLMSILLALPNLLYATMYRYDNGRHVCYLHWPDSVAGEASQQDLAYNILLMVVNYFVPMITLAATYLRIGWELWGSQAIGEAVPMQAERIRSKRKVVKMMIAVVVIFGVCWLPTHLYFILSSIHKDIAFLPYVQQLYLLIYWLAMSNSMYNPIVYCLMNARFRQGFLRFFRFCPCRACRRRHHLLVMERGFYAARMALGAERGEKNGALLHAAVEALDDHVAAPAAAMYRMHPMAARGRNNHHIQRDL
Description: as §1, §2

[5] = molecular target: T1, apTKRPR-A; experiment: Receptor desensitization assay, protocol 2 (repeated agonist exposure), apTKRPR-A; settings: 10 μM pretreatment 2-60 min without LiCl, wash, second 10 μM application for 15 min with LiCl; % of control; n = 5
Description: Therefore, we adopted two protocols to study the desensitization of apTKRPRs. The protocols were performed using a procedure modified from previous work ([87], [88], [89]).
Protocol 2 ([89]): To simulate repeated stimulation with an agonist, we examined agonist-induced desensitization by quantifying the accumulation level of IP1 after two applications of the agonist/ligand. Because the IP1 accumulation assay involves using LiCl to stop the degradation of IP1, in this protocol, LiCl was applied only during the second application of the agonist. Specifically, to elicit desensitization, cells were first exposed to 10 μM apTKRP-2b in the absence of LiCl for various pretreatment durations (pretreatment stage/phase Ⅰ). After this agonist exposure, cells were washed (three times) rapidly with PBS (phase Ⅱ), and the wash was consistently performed in each experiment. Responsiveness of the receptor was then assessed by measuring intracellular concentrations of IP1 accumulation in response to a second application of 10 μM apTKRP-2b for 15 min in the presence of LiCl (phase Ⅲ) (Fig. S11).

## CC(C)C[C@H](NC(=O)[C@H](Cc1c[nH]cn1)NC(=O)[C@@H]1CCCN1C(=O)[C@@H]1CCC(=O)N1)C(=O)NCC(=O)N[C@@H](Cc1ccccc1)C(=O)N[C@@H](Cc1c[nH]cn1)C(=O)NCC(=O)N[C@@H](CO)C(=O)N[C@@H](CCCNC(=N)N)C(N)=O [apTKRP-2b] ([pGlu]PHLGFHGSR-NH2)
[1]
  EC50: 0.0372 µM
[1]; 10^-5 M compared with 10^-10 M (control), n = 3, no Gαq cotransfection
  IP1 response of apTKRPR-A in screening: responded
[2]
  EC50: 0.0182 µM
[3]
  EC50: 0.0589 µM
[4]
  EC50: 0.0245 µM
[5]
  IP1 accumulation after pretreatment, apTKRPR-A (protocol 2): IP1 accumulation was less after the second exposure
